From ChEMBL document CHEMBL4507295 (2021)

What was measured:
[1] = molecular target: Serine/threonine-protein kinase Nek4 (Homo sapiens) (UniProt P51957); details: Compound concentration 1000.0 nM
[2] = molecular target: Vascular endothelial growth factor receptor 1 (Homo sapiens) (UniProt P17948); details: Compound concentration 1000.0 nM
[3] = molecular target: Ephrin type-B receptor 4 (Homo sapiens) (UniProt P54760); details: Compound concentration 1000.0 nM
[4] = molecular target: Serine/threonine-protein kinase WNK4 (Homo sapiens) (UniProt Q96J92); details: Compound concentration 1000.0 nM
[5] = molecular target: Serine/threonine-protein kinase BRSK1 (Homo sapiens) (UniProt Q8TDC3); details: Compound concentration 1000.0 nM
[6] = molecular target: Dual specificity mitogen-activated protein kinase kinase 6 (Homo sapiens) (UniProt P52564); details: Compound concentration 1000.0 nM
Dual specificity mitogen-activated protein kinase kinase 6 (Homo sapiens), sequence (P52564 whole entry): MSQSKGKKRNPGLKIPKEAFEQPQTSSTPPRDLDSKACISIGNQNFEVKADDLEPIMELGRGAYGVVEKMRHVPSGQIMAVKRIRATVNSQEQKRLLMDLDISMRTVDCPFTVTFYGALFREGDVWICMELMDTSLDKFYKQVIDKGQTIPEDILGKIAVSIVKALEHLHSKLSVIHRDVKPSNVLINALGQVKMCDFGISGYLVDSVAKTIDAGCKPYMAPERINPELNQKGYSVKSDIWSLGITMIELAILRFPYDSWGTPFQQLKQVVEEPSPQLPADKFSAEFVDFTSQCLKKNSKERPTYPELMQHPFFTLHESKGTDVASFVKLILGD

[7] = molecular target: Cyclin-dependent kinase 5 (Homo sapiens) (UniProt Q00535); details: Compound concentration 1000.0 nM
[8] = molecular target: Serine/threonine-protein kinase BRSK2 (Homo sapiens) (UniProt Q8IWQ3); details: Compound concentration 1000.0 nM
[9] = molecular target: Serine/threonine-protein kinase 35 (Homo sapiens) (UniProt Q8TDR2); details: Compound concentration 1000.0 nM
[10] = molecular target: Dual specificity protein kinase CLK1 (Homo sapiens) (UniProt P49759); details: Compound concentration 1000.0 nM
[11] = molecular target: Serine/threonine-protein kinase 4 (Homo sapiens) (UniProt Q13043); details: Compound concentration 1000.0 nM
[12] = molecular target: Serine/threonine-protein kinase VRK2 (Homo sapiens) (UniProt Q86Y07); details: Compound concentration 1000.0 nM
Serine/threonine-protein kinase VRK2 (Homo sapiens), sequence (Q86Y07 whole entry): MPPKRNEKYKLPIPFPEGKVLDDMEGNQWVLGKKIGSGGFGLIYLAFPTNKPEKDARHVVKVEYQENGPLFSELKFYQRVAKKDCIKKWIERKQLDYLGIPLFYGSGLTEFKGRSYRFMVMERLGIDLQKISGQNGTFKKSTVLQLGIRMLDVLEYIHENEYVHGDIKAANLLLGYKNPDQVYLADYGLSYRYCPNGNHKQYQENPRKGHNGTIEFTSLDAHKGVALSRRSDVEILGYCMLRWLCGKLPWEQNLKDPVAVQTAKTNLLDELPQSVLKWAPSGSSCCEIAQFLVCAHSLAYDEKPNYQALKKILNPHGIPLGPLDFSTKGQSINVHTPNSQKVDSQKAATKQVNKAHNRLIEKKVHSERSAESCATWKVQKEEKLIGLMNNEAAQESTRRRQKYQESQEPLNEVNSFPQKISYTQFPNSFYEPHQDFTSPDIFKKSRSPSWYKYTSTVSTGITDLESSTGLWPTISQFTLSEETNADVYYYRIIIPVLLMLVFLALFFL

[13] = molecular target: Serine/threonine-protein kinase N1 (Homo sapiens) (UniProt Q16512); details: Compound concentration 1000.0 nM
[14] = molecular target: Serine/threonine-protein kinase SIK1 (Homo sapiens) (UniProt P57059); details: Compound concentration 1000.0 nM
[15] = molecular target: Serine/threonine-protein kinase DCLK2 (Homo sapiens) (UniProt Q8N568); details: Compound concentration 1000.0 nM
[16] = molecular target: Myosin-IIIb (Homo sapiens) (UniProt Q8WXR4); details: Compound concentration 1000.0 nM
Myosin-IIIb (Homo sapiens), sequence (Q8WXR4 whole entry): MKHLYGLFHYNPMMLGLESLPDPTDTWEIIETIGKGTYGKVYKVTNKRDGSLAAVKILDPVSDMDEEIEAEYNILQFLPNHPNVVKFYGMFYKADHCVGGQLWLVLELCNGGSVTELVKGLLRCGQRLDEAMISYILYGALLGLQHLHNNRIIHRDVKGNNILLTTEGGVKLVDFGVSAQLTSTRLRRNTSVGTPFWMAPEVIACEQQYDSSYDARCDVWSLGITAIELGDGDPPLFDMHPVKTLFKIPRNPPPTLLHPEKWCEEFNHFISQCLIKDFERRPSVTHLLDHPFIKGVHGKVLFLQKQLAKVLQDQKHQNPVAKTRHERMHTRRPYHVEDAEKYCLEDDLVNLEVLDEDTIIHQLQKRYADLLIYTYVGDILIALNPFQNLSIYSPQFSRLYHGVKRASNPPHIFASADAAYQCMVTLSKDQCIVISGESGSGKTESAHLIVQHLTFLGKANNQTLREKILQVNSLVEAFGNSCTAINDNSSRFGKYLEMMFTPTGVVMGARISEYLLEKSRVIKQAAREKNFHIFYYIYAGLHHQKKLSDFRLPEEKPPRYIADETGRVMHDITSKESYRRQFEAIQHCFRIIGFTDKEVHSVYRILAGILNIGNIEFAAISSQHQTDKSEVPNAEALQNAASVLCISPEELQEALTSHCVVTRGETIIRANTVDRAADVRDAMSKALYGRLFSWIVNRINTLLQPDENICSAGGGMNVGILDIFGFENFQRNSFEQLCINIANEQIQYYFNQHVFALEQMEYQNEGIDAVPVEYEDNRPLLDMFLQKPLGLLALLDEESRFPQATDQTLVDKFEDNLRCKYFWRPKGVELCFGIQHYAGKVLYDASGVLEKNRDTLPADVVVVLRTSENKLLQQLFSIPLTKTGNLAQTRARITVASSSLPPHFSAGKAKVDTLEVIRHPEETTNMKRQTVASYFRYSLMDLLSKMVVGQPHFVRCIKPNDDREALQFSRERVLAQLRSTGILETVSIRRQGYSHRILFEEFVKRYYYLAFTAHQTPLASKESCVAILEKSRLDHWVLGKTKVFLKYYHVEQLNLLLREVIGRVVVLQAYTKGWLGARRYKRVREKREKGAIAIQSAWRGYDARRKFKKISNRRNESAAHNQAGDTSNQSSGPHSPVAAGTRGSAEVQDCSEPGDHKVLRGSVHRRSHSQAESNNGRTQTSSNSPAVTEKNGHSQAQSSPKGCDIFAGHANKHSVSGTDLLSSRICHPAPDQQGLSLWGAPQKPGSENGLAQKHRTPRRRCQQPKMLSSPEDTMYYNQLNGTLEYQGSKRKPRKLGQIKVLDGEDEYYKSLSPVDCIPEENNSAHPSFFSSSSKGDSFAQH

[17] = molecular target: Ribosomal protein S6 kinase alpha-6 (Homo sapiens) (UniProt Q9UK32); details: Compound concentration 1000.0 nM
[18] = molecular target: Cyclin-dependent kinase-like 1 (Homo sapiens) (UniProt Q00532); details: Compound concentration 1000.0 nM
[19] = molecular target: MAP/microtubule affinity-regulating kinase 3 (Homo sapiens) (UniProt P27448); details: Compound concentration 1000.0 nM
[20] = molecular target: Serine/threonine-protein kinase MRCK alpha (Homo sapiens) (UniProt Q5VT25); details: Compound concentration 1000.0 nM
[21] = molecular target: Mitogen-activated protein kinase kinase kinase 13 (Homo sapiens) (UniProt O43283); details: Compound concentration 1000.0 nM
[22] = molecular target: Dual specificity mitogen-activated protein kinase kinase 4 (Homo sapiens) (UniProt P45985); details: Compound concentration 1000.0 nM
[23] = molecular target: Casein kinase I isoform alpha-like (Homo sapiens) (UniProt Q8N752); details: Compound concentration 1000.0 nM
[24] = molecular target: Sodium-dependent dopamine transporter (Homo sapiens) (UniProt Q01959); details: Compound concentration 10.0 uM
[25] = system: Epidermal growth factor receptor (Homo sapiens), P00533 [L858R]; details: Compound concentration 1000.0 nM
[26] = molecular target: Serine/threonine-protein kinase TAO3 (Homo sapiens) (UniProt Q9H2K8); details: Compound concentration 1000.0 nM
[27] = molecular target: G protein-coupled receptor kinase 4 (Homo sapiens) (UniProt P32298); details: Compound concentration 1000.0 nM
[28] = molecular target: Sigma non-opioid intracellular receptor 1 (Homo sapiens) (UniProt Q99720); details: Compound concentration 10.0 uM
Sigma non-opioid intracellular receptor 1 (Homo sapiens), sequence (Q99720 whole entry): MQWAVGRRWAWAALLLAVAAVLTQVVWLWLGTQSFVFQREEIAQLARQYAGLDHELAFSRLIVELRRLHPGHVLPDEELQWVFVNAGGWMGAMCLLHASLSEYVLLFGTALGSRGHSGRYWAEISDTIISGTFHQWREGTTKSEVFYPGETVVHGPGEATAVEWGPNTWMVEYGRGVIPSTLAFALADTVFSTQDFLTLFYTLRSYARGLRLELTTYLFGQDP

[29] = molecular target: Aurora kinase C (Homo sapiens) (UniProt Q9UQB9); details: Compound concentration 1000.0 nM
[30] = molecular target: Histamine H3 receptor (Homo sapiens) (UniProt Q9Y5N1); details: Compound concentration 10.0 uM
Histamine H3 receptor (Homo sapiens), sequence (Q9Y5N1 whole entry): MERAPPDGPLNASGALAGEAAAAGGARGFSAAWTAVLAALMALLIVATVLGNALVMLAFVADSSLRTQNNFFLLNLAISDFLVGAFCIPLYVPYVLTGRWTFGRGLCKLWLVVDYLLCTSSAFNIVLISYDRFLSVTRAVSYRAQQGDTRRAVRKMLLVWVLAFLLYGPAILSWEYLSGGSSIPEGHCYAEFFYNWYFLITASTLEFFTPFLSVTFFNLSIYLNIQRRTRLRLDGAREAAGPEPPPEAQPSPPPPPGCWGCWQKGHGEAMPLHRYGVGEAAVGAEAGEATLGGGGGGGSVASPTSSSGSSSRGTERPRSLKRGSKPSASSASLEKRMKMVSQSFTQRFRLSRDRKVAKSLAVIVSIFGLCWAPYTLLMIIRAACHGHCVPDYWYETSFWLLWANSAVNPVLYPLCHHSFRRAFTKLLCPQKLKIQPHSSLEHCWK

[31] = molecular target: Ephrin type-B receptor 3 (Homo sapiens) (UniProt P54753); details: Compound concentration 1000.0 nM
[32] = molecular target: Mitogen-activated protein kinase kinase kinase 1 (Homo sapiens) (UniProt Q13233); details: Compound concentration 1000.0 nM
Mitogen-activated protein kinase kinase kinase 1 (Homo sapiens), sequence (Q13233 whole entry): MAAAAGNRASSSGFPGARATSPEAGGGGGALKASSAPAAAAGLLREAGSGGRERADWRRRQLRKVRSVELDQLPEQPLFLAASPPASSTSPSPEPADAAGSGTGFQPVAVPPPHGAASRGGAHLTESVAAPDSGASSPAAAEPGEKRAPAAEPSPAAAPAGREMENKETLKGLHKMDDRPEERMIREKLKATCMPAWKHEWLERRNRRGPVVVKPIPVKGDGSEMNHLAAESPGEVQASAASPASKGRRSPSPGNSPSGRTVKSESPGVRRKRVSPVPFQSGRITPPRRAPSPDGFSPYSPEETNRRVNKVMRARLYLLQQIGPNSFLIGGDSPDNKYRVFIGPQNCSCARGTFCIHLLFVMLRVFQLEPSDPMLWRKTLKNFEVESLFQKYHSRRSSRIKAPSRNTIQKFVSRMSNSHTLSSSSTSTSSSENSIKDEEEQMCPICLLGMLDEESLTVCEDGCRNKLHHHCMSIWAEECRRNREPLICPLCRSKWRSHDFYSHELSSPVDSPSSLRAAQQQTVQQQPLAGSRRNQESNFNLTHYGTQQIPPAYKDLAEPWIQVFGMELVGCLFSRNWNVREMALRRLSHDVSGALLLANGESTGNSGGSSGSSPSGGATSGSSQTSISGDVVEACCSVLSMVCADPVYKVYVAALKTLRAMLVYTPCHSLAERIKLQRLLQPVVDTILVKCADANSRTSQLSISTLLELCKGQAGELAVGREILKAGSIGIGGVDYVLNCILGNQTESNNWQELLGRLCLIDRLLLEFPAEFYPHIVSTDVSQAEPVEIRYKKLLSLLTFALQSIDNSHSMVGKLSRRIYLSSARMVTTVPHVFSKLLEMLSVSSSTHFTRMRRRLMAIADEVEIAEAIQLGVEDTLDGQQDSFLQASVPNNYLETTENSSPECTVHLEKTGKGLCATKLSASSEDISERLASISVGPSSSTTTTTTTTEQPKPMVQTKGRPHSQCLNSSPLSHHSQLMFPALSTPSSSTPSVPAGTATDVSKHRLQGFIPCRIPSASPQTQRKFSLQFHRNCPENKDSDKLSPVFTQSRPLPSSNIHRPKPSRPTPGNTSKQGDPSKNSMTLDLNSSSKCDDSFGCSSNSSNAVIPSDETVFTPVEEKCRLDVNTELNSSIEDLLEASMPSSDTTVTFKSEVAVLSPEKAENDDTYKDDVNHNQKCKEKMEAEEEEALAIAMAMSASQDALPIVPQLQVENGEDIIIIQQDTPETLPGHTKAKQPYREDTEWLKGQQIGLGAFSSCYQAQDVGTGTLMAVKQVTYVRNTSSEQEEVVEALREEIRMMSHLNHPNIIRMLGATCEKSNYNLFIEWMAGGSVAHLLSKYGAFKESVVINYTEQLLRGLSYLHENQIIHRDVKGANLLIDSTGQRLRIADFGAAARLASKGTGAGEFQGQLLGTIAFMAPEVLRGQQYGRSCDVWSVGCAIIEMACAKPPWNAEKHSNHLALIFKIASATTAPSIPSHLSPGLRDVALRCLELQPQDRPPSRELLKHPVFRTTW

[33] = molecular target: Serine/threonine-protein kinase Nek7 (Homo sapiens) (UniProt Q8TDX7); details: Compound concentration 1000.0 nM
[34] = molecular target: Protein kinase C eta type (Homo sapiens) (UniProt P24723); details: Compound concentration 1000.0 nM
Protein kinase C eta type (Homo sapiens), sequence (P24723 whole entry): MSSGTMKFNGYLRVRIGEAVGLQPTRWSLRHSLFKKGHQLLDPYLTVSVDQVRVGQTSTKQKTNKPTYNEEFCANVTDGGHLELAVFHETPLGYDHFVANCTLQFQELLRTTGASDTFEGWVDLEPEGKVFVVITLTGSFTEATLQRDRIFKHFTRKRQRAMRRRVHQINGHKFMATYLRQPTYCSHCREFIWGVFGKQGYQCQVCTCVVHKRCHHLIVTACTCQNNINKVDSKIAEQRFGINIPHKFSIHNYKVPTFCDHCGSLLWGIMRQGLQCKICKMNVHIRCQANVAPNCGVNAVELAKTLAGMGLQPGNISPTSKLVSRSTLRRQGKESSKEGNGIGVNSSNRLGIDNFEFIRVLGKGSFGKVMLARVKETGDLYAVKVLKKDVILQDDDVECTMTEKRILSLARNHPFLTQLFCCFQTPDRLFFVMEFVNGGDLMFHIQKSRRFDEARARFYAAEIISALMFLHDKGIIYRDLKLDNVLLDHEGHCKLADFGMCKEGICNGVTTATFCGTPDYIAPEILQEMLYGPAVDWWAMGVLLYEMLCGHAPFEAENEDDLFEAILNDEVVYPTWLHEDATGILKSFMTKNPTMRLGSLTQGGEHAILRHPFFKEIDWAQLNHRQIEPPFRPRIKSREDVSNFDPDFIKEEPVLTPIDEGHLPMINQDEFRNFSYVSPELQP

[35] = molecular target: Rho-associated protein kinase 2 (Homo sapiens) (UniProt O75116); details: Compound concentration 1000.0 nM
[36] = molecular target: Rho-associated protein kinase 1 (Homo sapiens) (UniProt Q13464); details: Compound concentration 1000.0 nM
[37] = molecular target: Dual specificity tyrosine-phosphorylation-regulated kinase 1A (Homo sapiens) (UniProt Q13627); details: Compound concentration 1000.0 nM
[38] = molecular target: Tyrosine-protein kinase Tec (Homo sapiens) (UniProt P42680); details: Compound concentration 1000.0 nM
[39] = molecular target: Homeodomain-interacting protein kinase 4 (Homo sapiens) (UniProt Q8NE63); details: Compound concentration 1000.0 nM
[40] = molecular target: Tyrosine-protein kinase receptor TYRO3 (Homo sapiens) (UniProt Q06418); details: Compound concentration 1000.0 nM
[41] = molecular target: Myosin light chain kinase, smooth muscle (Homo sapiens) (UniProt Q15746); details: Compound concentration 1000.0 nM
[42] = molecular target: Vascular endothelial growth factor receptor 3 (Homo sapiens) (UniProt P35916); details: Compound concentration 1000.0 nM
[43] = molecular target: Protein kinase C theta type (Homo sapiens) (UniProt Q04759); details: Compound concentration 1000.0 nM
[44] = molecular target: Serine/threonine-protein kinase PLK3 (Homo sapiens) (UniProt Q9H4B4); details: Compound concentration 1000.0 nM
[45] = molecular target: Tyrosine-protein kinase FRK (Homo sapiens) (UniProt P42685); details: Compound concentration 1000.0 nM
[46] = molecular target: Serine/threonine-protein kinase D3 (Homo sapiens) (UniProt O94806); details: Compound concentration 1000.0 nM

N#CC1(c2ccccn2)CCN(Cc2cc(C(=O)N3CCCC3)c(=O)n3ccccc23)CC1
inactive: residual activity [1] 88% | residual activity [2] 100% | residual activity [3] 100% | residual activity [4] 81% | residual activity [5] 87% | residual activity [6] 98% | residual activity [7] 92% | residual activity [8] 77% | residual activity [9] 96% | residual activity [10] 85% | residual activity [11] 88% | residual activity [12] 100% | residual activity [13] 91% | residual activity [14] 100% | residual activity [15] 100% | residual activity [16] 100% | residual activity [17] 89% | residual activity [18] 78% | residual activity [19] 87% | residual activity [20] 84% | residual activity [21] 100% | residual activity [22] 83% | residual activity [23] 91% | inhibition [24] 18.6% | residual activity [25] 87% | residual activity [26] 100% | residual activity [27] 86% | inhibition [28] 16.3% | residual activity [29] 88% | inhibition [30] 11.2% | residual activity [31] 90% | residual activity [32] 98% | residual activity [33] 82% | residual activity [34] 100% | residual activity [35] 72% | residual activity [36] 100% | residual activity [37] 94% | residual activity [38] 100% | residual activity [39] 67% | residual activity [40] 78% | residual activity [41] 100% | residual activity [42] 86% | residual activity [43] 100% | residual activity [44] 100% | residual activity [45] 80% | residual activity [46] 100%

N#CC1(c2ccccn2)CCN(Cc2cc(C(=O)O)c(=O)n3ccccc23)CC1 [MSD-M1PAM]
inactive: residual activity [1] 100% | residual activity [2] 92% | residual activity [3] 83% | residual activity [4] 75% | residual activity [5] 100% | residual activity [6] 99% | residual activity [7] 100% | residual activity [8] 100% | residual activity [9] 94% | residual activity [10] 80% | residual activity [11] 100% | residual activity [12] 100% | residual activity [13] 100% | residual activity [14] 92% | residual activity [15] 100% | residual activity [16] 100% | residual activity [17] 84% | residual activity [18] 100% | residual activity [19] 100% | residual activity [20] 100% | residual activity [21] 78% | residual activity [22] 85% | residual activity [23] 100% | inhibition [24] -7.27% | residual activity [25] 86% | residual activity [26] 78% | residual activity [27] 68% | inhibition [28] 29.1% | residual activity [29] 94% | inhibition [30] 4.08% | residual activity [31] 92% | residual activity [32] 98% | residual activity [33] 100% | residual activity [34] 100% | residual activity [35] 85% | residual activity [36] 86% | residual activity [37] 97% | residual activity [38] 100% | residual activity [39] 95% | residual activity [40] 98% | residual activity [41] 87% | residual activity [42] 100% | residual activity [43] 96% | residual activity [44] 85% | residual activity [45] 100% | residual activity [46] 98%
